Experimental findings from US9371539B2, “DNA encoding ring zinc-finger protein and the use of the DNA in vectors and bacteria and in plants” (Board of Trustees of Michigan State University, priority 2006, dated 2016) are described below.

In assay [1] the test system is Arabidopsis thaliana. As to the kind of experiment: Effect of ABA on seed germination (radicle emergence >1 mm). Format: in vivo. As for the experimental part: (§1) Arabidopsis thaliana, ecotype Columbia (Col), was used as the wild-type plant for phenotypic assays for comparison to transgenic 35S::XERICO Arabidopsis thaliana, plants in these experiments. Unless noted otherwise, plants were grown under sterile conditions on MS nutrient agar media (1×MS basal medium (Sigma, stock number M5519) with 2% sucrose and 0.3% phytagel (Sigma) containing 2% sucrose or on soil in a growth chamber (16 h light/8 h dark) at 23° C., after stratification. For monitoring of hypocotyl elongation and root growth with response salt/osmotic stress, a minimum of 20 seeds were sowed on MS nutrient agar media containing specified treatments, following which the plates were held in the vertical position for 7 days. For testing the effects of ABA on germination and early seedling growth, seeds were grown horizontally. For abiotic stress treatments, wild-type seedlings were grown on MS nutrient agar media containing 2% sucrose for 10-days and then treated the stresses indicated in FIG. 1, for up to 24 hour without a treatment control. Samples were collected at the indicated time and frozen immediately in liquid N2 and were stored at −80° C. until use. Experiments were performed in triplicates and repeated at least three times.
(§2) Since the hypersensitivity to salt or osmotic stress was the most prominent phenotype of the three independent T3 homozygous lines of 35S::XERICO plants, the functional relationship of the gene with ABA, a plant stress hormone involved in salt and drought stress adaptation, was investigated. […] Although 35S::XERICO plants germinated slightly later than wild-type even in the absence of exogenous ABA (FIG. 3c), germination was further delayed following ABA treatment. At 0.1 μM of ABA, 13% of 35S::XERICO plants were germinated 1.5 day after sowing, while 43% of wild-type seeds germinated. […] Germination was scored by the emergence of a radicle (>1 mm). The number of ‘cotyledon opening’ of seedlings at five days after sowing were counted and recorded. […]

In assay [2] the test system is Arabidopsis thaliana. Nature of the assay: Effect of ABA on early seedling growth and cotyledon opening. It is filed as in vivo. As to the method: as §1, §2
The subject of the next assay is AtNCED3. As to the kind of experiment: RNA gel blot analysis of response to ABA treatment. Format: in vivo, Arabidopsis thaliana. As to conditions: 10 μM ABA up to 24 hour; both wild-type and 35S::XERICO plants. As for the experimental part:
(a) RNA gel blot analysis showing a response to ABA. Wild-type (WT) and 35S::XERICO plants were grown on MS nutrient agar media for 10 days and then treated with 10 μM of ABA for up to 24 hour. Total RNA was isolated at the indicated times after treatment. Each lane was loaded with 10 μg total RNA. The RNA blot was hybridized with [^32P]-labeled gene specific probes for AtNCED3 (SEQ ID NO:452), AtCYP707A2 (SEQ ID NO:428) and RD29a (SEQ ID NO:386). Probing with Actin 8 (SEQ ID NO:455) was used as a RNA loading control. (b) RNA gel blot analysis in response to drought treatment. Wild-type (WT) and 35S::XERICO plants were grown on MS medium for 14 days and then dehydrated (see, EXAMPLE I).
Total RNA was extracted using the Trizol reagent method (Gibco-BRL, Gaithersburg, Md.). For northern blot analysis, 10 μg of total RNA from each sample was denatured and separated using a 1% agarose-formaldehyde gel. RNA was transferred onto a Hybond-N+ membrane (Stratagene, La Jolla, Calif.) by capillary action. Gene-specific probes were prepared by PCR and labeled with [^32P]-dCTP using a Prime-it II Random Primer Labeling kit (Stratagene, La Jolla, Calif.). […]

For a further assay, the system named is XERICO. Nature of the assay: Expression of XERICO upon ABA treatment. It is filed as in vivo, Arabidopsis thaliana. The settings on record: ABA 10 μM; up to 3-hours post-treatment. As for the experimental part:
Total RNA was extracted using the Trizol reagent method (Gibco-BRL, Gaithersburg, Md.). For northern blot analysis, 10 μg of total RNA from each sample was denatured and separated using a 1% agarose-formaldehyde gel. RNA was transferred onto a Hybond-N+ membrane (Stratagene, La Jolla, Calif.) by capillary action. Gene-specific probes were prepared by PCR and labeled with [^32P]-dCTP using a Prime-it II Random Primer Labeling kit (Stratagene, La Jolla, Calif.). Primers used in this analysis were following: XERICO (forward; SEQ ID NO:439, 5′-[…]-3 and reverse; SEQ ID NO:440, 5′-[…]-3′), AtNCED3 (forward, SEQ ID NO:441, 5′-[…]-3′ and reverse; SEQ ID NO:442, 5′-[…]-3′), AtCYP707A2 (forward; SEQ ID NO:443, 5′-[…]-3′ and reverse; SEQ ID NO:444, 5′-[…]-3′), RD29a (forward; SEQ ID NO:445, 5′-[…]-3′ and reverse; SEQ ID NO:446, 5′-[…]-3′), and Actin 8 (forward; SEQ ID NO:447, 5′-[…]-3′ and reverse; SEQ ID […], 5′-[…]-3′). Hybridization was carried out using ULTRAhyb® according to the manufacturer's instructions (Ambion, Austin, Tex.), and a Kodak Biomax film (Sigma) was exposed to the blot. An Actin 8 gene (SEQ ID NO:457) or ethidium bromide-stained ribosomal RNA was used as a loading control.

Another assay has as its target T1, AtTLP9 (Arabidopsis thaliana, UniProt Q9SQU1).
T1 construct: expressed in transfected cells; host or cells: yeast strain AH109
T1 sequence (Q9SQU1 1-380): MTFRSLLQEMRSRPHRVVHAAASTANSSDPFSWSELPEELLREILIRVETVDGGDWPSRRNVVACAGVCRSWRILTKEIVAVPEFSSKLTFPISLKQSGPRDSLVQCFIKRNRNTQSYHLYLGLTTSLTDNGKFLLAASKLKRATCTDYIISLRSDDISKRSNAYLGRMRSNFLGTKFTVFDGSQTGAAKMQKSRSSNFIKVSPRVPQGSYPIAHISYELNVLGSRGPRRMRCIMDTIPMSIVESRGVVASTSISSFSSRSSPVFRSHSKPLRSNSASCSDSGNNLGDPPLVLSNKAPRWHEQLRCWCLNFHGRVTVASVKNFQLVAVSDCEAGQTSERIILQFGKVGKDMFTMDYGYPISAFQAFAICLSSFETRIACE
Nature of the assay: Yeast two-hybrid screening. It is filed as binding. The settings on record: yeast AH109; truncated XERICO without transmembrane domain as bait. As for the experimental part: (§3) Two-hybrid screening was performed using the BD Matchmaker™ library construction and screening kit (Clonetech, Palo Alto, Calif.); pGADT7 was used as the base for a GAL4 activation domain (AD) vector and pGBKT7 was used for a GAL4 DNA-binding domain (DNA-BD) vector (pGADT7 and pGBKT7 were obtained from “BD Matchmaker Library Construction & Screening Kits” (Clontech, Palo Alto, Calif.)). The yeast strain AH109 (leu^−, trp^−, Ade^−, his^−) (obtained from “BD Matchmaker Library Construction & Screening Kits (Clontech, Palo Alto, Calif.)) with chromosomally integrated reporter genes lacZ and HIS under the control of the GAL1 promoter activated by the GAL4 transcription factor was used to host all constructs. Truncated XERICO cDNA without a transmembrane domain (SEQ ID NO: 451) was amplified by PCR using primers 5′-[…]-3′ (forward; SEQ ID NO:449) and 5′-[…]-3′ (reverse; SEQ ID NO:450) designed to contain EcoRI and PstI site, respectively. The amplified PCR product was digested with EcoRI and PstI, and subcloned into pGBKT7 as a fusion to the DNA binding domain of GAL4 and verified by sequencing. The pGBKT7/XERICO vector was used as a bait to screen an Arabidopsis thaliana cDNA library in pGADT7 as a fusion to the activation domain of GAL4. […]

A further assay concerns the target T2, AtUBC8 (Arabidopsis thaliana, UniProt P35131).
T2 construct: expressed in transfected cells; host or cells: yeast strain AH109
Nature of the assay: Yeast two-hybrid screening. As to conditions: yeast AH109; truncated XERICO without transmembrane domain as bait. Format: binding. As to the method: as §3

T2 sequence (P35131 whole entry): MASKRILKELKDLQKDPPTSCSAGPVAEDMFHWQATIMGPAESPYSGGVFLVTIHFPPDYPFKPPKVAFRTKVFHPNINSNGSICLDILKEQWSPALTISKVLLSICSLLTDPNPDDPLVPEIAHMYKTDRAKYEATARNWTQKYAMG

In turn, `CC1=CC(=O)CC(C)(C)[C@@]1(O)/C=C/C(C)=C\C(=O)O` [ABA, abscisic acid] yielded a plants germinated in the assay with Arabidopsis thaliana [1] (0.1 μM ABA, 1.5 day after sowing, 35S::XERICO plants) of 13%. In the assay on Arabidopsis thaliana [1] (0.1 μM ABA, 1.5 day after sowing, wild-type seeds), this molecule had a seeds germinated of 43%. Moreover, the “plants failed to germinate” value with Arabidopsis thaliana [1] (1.0 μM ABA, prolonged incubation, 35S::XERICO plants) is “more than 20%”. Further, the early seedling growth result in the assay on Arabidopsis thaliana [2] (0.1 μM exogenous ABA, three independent lines of 35S::XERICO plants, compared to wild-type) was “arrested immediately after germination”. Besides, in the assay with Arabidopsis thaliana [2] (1 μM ABA, five days after sowing, 35S::XERICO plants), the cotyledon opening entry is “did not develop a cotyledon”. Besides, the “plants with opened cotyledons” value with Arabidopsis thaliana [2] (1 μM ABA, five days after sowing, wild-type plants) is “approximately 80%”. The “transcripts of AtNCED3” value in the assay with AtNCED3 is reported as “clearly increased”. The “expression of XERICO” value in the assay on XERICO is recorded as “no significant changes”.

B1: XERICO: protein encoded by Arabidopsis thaliana gene AT2G04240; 162 amino acids, RING-H2 zinc-finger motif (protein)
chain: MGLSSLPGPSEGMLCVILVNTALSISIVKGIVRSFLGIVGISLSPSSSSPSSVTVSSENSSTSESFDFRVCQPESYLEEFRNRTPTLRFESLCRCKKQADNECSVCLSKFQGDSEINKLKCGHLFHKTCLEKWIDYWNITCPLCRTPLVVVPEDHQLSSNVW
B1: the “interaction with AtTLP9” value with AtTLP9 is on record as “interacts”. The “interaction with AtUBC8” value with AtUBC8 is “interacts”.
